Where two headings read alike, the source gives them in different places.
Tests used:
[1] = tested on: U87-CD4-CCR5 or U87-CD4-CXCR4 cells; assay: U87 cell viability MTT; type: cell-based; details: for U87 % cell death rep3 (X4 P24 Washout expt): 5uM; for U87 % Cell Death rep3 (R5 P24 Washout expt) / U87 % cell death rep3 (R5 P24 NO Washout expt) / U87 % cell death rep3 (X4 P24 NO Washout expt) / U87 Luc % cell death rep1 / U87 Luc % cell death rep2: 5µM
[2] = tested on: Trypanosoma brucei rhodesiense STIB 900; details: ref [84]; cited from earlier work
Chromera velia = Chromera velia flagellation motility assay; details: 1µM
[3] = Mouse oral PK single dose; type: in vivo; details: male, CD-1, mouse, plasma, 140 umol/kg; 140 μmol/kg oral
Protocol: Columns GD-GJ: Wuxi Inc. data for MMV (data presented first in this paper) PK/DMPK Parameters: Fasted animals (Male CD-1 mouse, 7-9 weeks age, 30±10 g, n=3) obtained from an approved vendor (SLAC Laboratory Animal Co. Ltd., Shanghai, China or Sino-British SIPPR/BK Laboratory Animal Co. Ltd Shanghai, China) were administered with a single oral dose (140 μmol/kg) using DMSO: 1% HPMC (5:95) as a vehicle. Blood sampling was performed via the submandibular or saphenous vein (t=0.083, 0.25, 1, 2, 4, 6 and 9 h) and transferred into microcentrifuge tubes containing Sodium Heparin (1,000 IU/ml) as anti-coagulant placed on wet ice until processed for plasma by centrifugation at approximately 4°C, 3000×g for 15 min. Plasma samples were stored in polypropylene tubes, quick frozen over dry ice and kept at -70±10°C until LC/MS/MS analysis. LC/MS/MS methods for the quantitative determination compounds plasma levels were developed with an internal standard. […] (Phoenix WinNonlin, version 6.2.1, Pharsight, Mountain View, CA) and expressed as Cmax & AUC0-last. […] AUC0-last is the area under the curve expressed as >12 h*μM (Yes or No). Plasma protein binding assay (PPB) (CD-1 mouse and human) expressed as <95% bound, >95% bound, or >99% bound. Kinetic Solubility at pH 7.4 was determined by liquid chromatography/chemiluminescence nitrogen detection (LC/CLND) and was scored as greater than 20µM (Yes or No). hERG inhibition was measured at 11µM by the QPatch- HT system and is expressed as “Yes” if greater than 45% inhibited at 11µM and “No” if less than or equal to 45% inhibited at 11µM. As part of the Drug-Drug Interaction studies (DDI issues), 5 human and 1 mouse CYP isoforms (1A2, 2C9, 2C19, 2D6, 3A4-M, 3A4-T) were tested for inhibition assay at 10 µM. […] Otherwise DDI issues were scored as “No”. Positive and negative controls were run for each assay (Table 1).

[4] = tested on: HIV-1 JR-FL or HIV-1 NL4-3 pseudoviruses; assay: HIV-1 pseudovirus infection luciferase; type: cell-based; details: Human immunodeficiency virus 1, HXB2 / NL43, read-out: HIV HXB2 % inhibition rep2 in U87 Luc
[5] = tested on: P. falciparum NF54 gametocytes; set-up: method as in ref [72] (a number printed in a supplementary file, which may have a reference list of its own: not looked up in the article's list); details: 10µM; ref [72]; cited from earlier work
Trypanosoma cruzi = assay: T. cruzi Scynexis; type: cell-based
[6] = tested on: Mycobacterium tuberculosis mc26220 replicating; assay: microbe, parasite or virus in culture; type: cell-based
[7] = tested on: Perkinsus marinus trophozoites; set-up: method as in ref [96] (a number printed in a supplementary file, which may have a reference list of its own: not looked up in the article's list); details: 20µM; ref [96]; cited from earlier work
[8] = tested on: Schistosoma mansoni schistosomula (somules); assay: S. mansoni somules phenotypic screen Caffrey
[9] = tested on: Leishmania donovani axenic amastigotes; assay: L. donovani axenic amastigotes Scynexis; type: cell-based
[10] = tested on: P. falciparum W2 apicoplast; details: 5µM compound; ref [54]; cited from earlier work
[11] = tested on: primary human hepatocytes; assay: MPCC hepatotoxicity (albumin, urea, morphology); type: cell-based; details: 10µM
P. berghei ookinetes = tested on: P. berghei ookinetes; set-up: method as in ref [74] (a number printed in a supplementary file, which may have a reference list of its own: not looked up in the article's list); details: 1µM; ref [74]; cited from earlier work
[12] = tested on: P. falciparum NF54 GFP-Pfs16 gametocytes stage IV-V; details: ref [64], cited from earlier work
T. b. brucei Squib 427 = details: ref [84]; read-out: Trypansoma brucei brucei Squib 427 IC50; cited from earlier work
P. falciparum 3D7 or K1 = assay: Asexual Blood Stage Imaging Assay (DAPI) V. Avery; type: cell-based; details: Plasmodium falciparum; 5µM; read-out: P. falciparum 3D7 asexual blood stage % inhibition (Image)

SMILES	U87 % cell death rep3 (X4 P24 Washout expt) [1] [%]	U87 % Cell Death rep3 (R5 P24 Washout expt) [1] [%]	U87 % cell death rep3 (R5 P24 NO Washout expt) [1] [%]	U87 % cell death rep3 (X4 P24 NO Washout expt) [1] [%]	U87 Luc % cell death rep1 [1] [%]	U87 Luc % cell death rep2 [1] [%]	Chromera velia 24 hr Flagellation (control standardized to ++; 0 = no flagella) (Chromera velia)	Chromera velia 72 hr Flagellation (control standardized to ++; 0 = no flagella) (Chromera velia)	AUC [3] [µM·h]	Cmax [3] [nM]	inhibition at 5 µM [4] [%]	gametocyte stage IV-V SYBR Green % inhibition [5] [%]	inhibition at 5 µM (Trypanosoma cruzi) [%]	inhibition at 25 µM [6] [%]	Perkinsus marinus % growth [7] [%]	S. mansoni newly transformed schistosomula, visual tox scale, 0 = none, 4=most damaged ([8]; 24 h at 2.5µM)	S. mansoni newly transformed schistosomula, visual tox scale, 0 = none, 4=most damaged ([8]; 72 h at 2.5µM)	inhibition at 5 µM [9] [%]	Human hepatocyte Urea synthesis, 1.0 normal [11]	Human hepatocyte albumin synthesis, 1.0 normal [11]	also measured
COc1ccc(C(=O)Nc2ccc3nc(N4CCCCC4)cc(C)c3c2)cc1OC [MMV019758]	-25	3.19	39	-2.11	-1.12	4.5	+	++	> 12	> 1000	-36	49	71	21	101	0	0	-50	0.66	0.58	EC50 [2]: 10.9 µM; P. falciparum (W2) asexual growth: ratio w & wout 200µM IPP [10]: 0.79; P. berghei ookinete assay % inhibition (P. berghei ookinetes): -18.9%; gametocyte late stage (IV-V) GFP-MTR % inhibition ([12]; 0.5µM): 3.3%; gametocyte late stage (IV-V) GFP-MTR % inhibition ([12]; 5µM): 51%; IC50 (T. b. brucei Squib 427): 16.2 µM; inhibition at 5 µM (P. falciparum 3D7 or K1): 76%
COc1cc2cc(C(=O)Nc3ccccc3)c(N)nc2cc1OC [MMV006767]	51	-0.103	95	106	75	43	+++	++	> 12	> 1000	51	60	86	17	44	0	2	-49	1.00	0.82	P. berghei ookinete assay % inhibition (P. berghei ookinetes): 8.6%; gametocyte late stage (IV-V) GFP-MTR % inhibition ([12]; 0.5µM): 3%; gametocyte late stage (IV-V) GFP-MTR % inhibition ([12]; 5µM): -13%; inhibition at 5 µM (P. falciparum 3D7 or K1): 99%
CCN(CC)c1cc(C)c2cc(NC(=O)c3cccc(OC)c3)ccc2n1 [MMV000498]	-4	1.63	33	13	21	64	++	+++	> 12	> 1000	55	60	98	19	74	2	0	-65	0.65	0.57	EC50 [2]: 0.679 µM; P. falciparum (W2) asexual growth: ratio w & wout 200µM IPP [10]: 1.10; P. berghei ookinete assay % inhibition (P. berghei ookinetes): -7.5%; gametocyte late stage (IV-V) GFP-MTR % inhibition ([12]; 0.5µM): -0.167%; gametocyte late stage (IV-V) GFP-MTR % inhibition ([12]; 5µM): 87%; IC50 (T. b. brucei Squib 427): 14.3 µM; inhibition at 5 µM (P. falciparum 3D7 or K1): 97%
CCOC(=O)c1cnc2ccc(OC)cc2c1NCc1ccccc1 [MMV665813]	12	-10	-9	46	-52	36	+++	++	< 12	< 1000	-1.56	61	-49	40	69	1	1	52	0.81	0.93	EC50 [2]: 4.95 µM; P. falciparum (W2) asexual growth: ratio w & wout 200µM IPP [10]: 0.72; P. berghei ookinete assay % inhibition (P. berghei ookinetes): -6.8%; gametocyte late stage (IV-V) GFP-MTR % inhibition ([12]; 0.5µM): 10%; gametocyte late stage (IV-V) GFP-MTR % inhibition ([12]; 5µM): 2%; IC50 (T. b. brucei Squib 427): 14.9 µM; inhibition at 5 µM (P. falciparum 3D7 or K1): 97%
CCN1CCN(c2cc(C)c3cc(NC(=O)c4ccc(OC)c(OC)c4)ccc3n2)CC1 [MMV019074]	-32	7.48	17	3.26	0.063	10	+++	+++	< 12	> 1000	-69	47	13	15	92	1	0	-34	0.58	0.51	EC50 [2]: 3.22 µM; P. berghei ookinete assay % inhibition (P. berghei ookinetes): -2.9%; gametocyte late stage (IV-V) GFP-MTR % inhibition ([12]; 0.5µM): -6.56%; gametocyte late stage (IV-V) GFP-MTR % inhibition ([12]; 5µM): 4%; IC50 (T. b. brucei Squib 427): 4.78 µM; inhibition at 5 µM (P. falciparum 3D7 or K1): 99%

From article PMC4965013, “Open Source Drug Discovery with the Malaria Box Compound Collection for Neglected Diseases and Beyond” (PLoS Pathogens, 2016)
